# Legend:
# [1] = (§1) The drug is tested on WLS-007 corresponding to human gut metagenome with ENA study accession number: PRJEB37062 and ENA sample accession number: ERS12561742 for biotransformation under anaerobic condition. The drug concentrations were measured over 9 timepoints collected between 0 and 24 hours of incubation by liquid-chromatography-coupled mass spectrometry (LC–MS); conditions: 2 µM
# [2] = human gut metagenome, 24 h, 2 µM
# [3] = human gut metagenome, 24 h, 2 µM; remark: listed apart in the source
# [4] = human gut metagenome, 24 h, 2 µM; remark: listed apart in the source
# [5] = human gut metagenome, 24 h, 2 µM; remark: listed apart in the source
# [6] = human gut metagenome, 24 h, 2 µM; remark: listed apart in the source
# [7] = human gut metagenome, 24 h, 2 µM; remark: listed apart in the source
# [8] = as §1, with “Z-016” for “WLS-007”, “mouse” for “human”, “ERS12561815” for “ERS12561742”; conditions: 2 µM
# [9] = as §1, with “Z-021” for “WLS-007”, “to” for “to human gut”, “ERS12561820” for “ERS12561742”; conditions: 2 µM
# [10] = as §1, with “Z-023” for “WLS-007”, “to” for “to human gut”, “ERS12561822” for “ERS12561742”; conditions: 2 µM
# [11] = as §1, with “WLS-077” for “WLS-007”, “ERS12561750” for “ERS12561742”; conditions: 2 µM
# [12] = human gut metagenome, 24 h, 2 µM; remark: listed apart in the source
# [13] = as §1, with “Z-010” for “WLS-007”, “to” for “to human gut”, “ERS12561810” for “ERS12561742”; conditions: 2 µM
# [14] = human gut metagenome, 24 h, 2 µM; remark: listed apart in the source
# [15] = as §1, with “Z-019” for “WLS-007”, “rat” for “human”, “ERS12561818” for “ERS12561742”; conditions: 2 µM
# [16] = as §1, with “WLS-170” for “WLS-007”, “ERS12561762” for “ERS12561742”; conditions: 2 µM
# [17] = human gut metagenome, 24 h, 2 µM; remark: listed apart in the source
# [18] = human gut metagenome, 24 h, 2 µM; remark: listed apart in the source
# [19] = human gut metagenome, 24 h, 2 µM; remark: listed apart in the source
# [20] = human gut metagenome, 24 h, 2 µM; remark: listed apart in the source
# Also: call rule not given here.
smiles,measurement,setting,value
CN1CCN2c3ccccc3Cc3ccccc3C2C1 (stereo not given) [MIANSERIN],Bacterial Biotransformation,[1],Compound NOT metabolized
same,Bacterial Biotransformation,[2],Compound metabolized
same,Bacterial Biotransformation,[3],Compound metabolized
same,Bacterial Biotransformation,[4],Compound metabolized
same,Bacterial Biotransformation,[5],Compound metabolized
same,Bacterial Biotransformation,[6],Compound NOT metabolized
same,Bacterial Biotransformation,[7],Compound NOT metabolized
same,Bacterial Biotransformation,[8],Compound NOT metabolized
same,Bacterial Biotransformation,[9],Compound metabolized
same,Bacterial Biotransformation,[10],Compound NOT metabolized
same,Bacterial Biotransformation,[11],Compound NOT metabolized
same,Bacterial Biotransformation,[12],Compound NOT metabolized
same,Bacterial Biotransformation,[13],Compound metabolized
same,Bacterial Biotransformation,[14],Compound NOT metabolized
same,Bacterial Biotransformation,[15],Compound NOT metabolized
same,Bacterial Biotransformation,[16],Compound metabolized
same,Bacterial Biotransformation,[17],Compound NOT metabolized
same,Bacterial Biotransformation,[18],Compound metabolized
same,Bacterial Biotransformation,[19],Compound metabolized
same,Bacterial Biotransformation,[20],Compound NOT metabolized
